In patent US6716836B2, “Non-nucleoside reverse transcriptase inhibitors” (Boehringer Ingelheim (Canada) Ltd., priority 2001, dated 2004) one finds EC50 and IC50 data, which are given here for 30 compounds.

SMILES strings stand for the structures.

In assay [1] the test system is HIV replication in T-lymphocytes, virus coding for mutant enzyme K103N/Y181C. In words: ELISA (p24) assay for activity in cell culture, mutant virus. Conditions: Human immunodeficiency virus 1, T-lymphocyte, read-out: EC50 K103N/Y181C. Format: cell-based. The method, then: (§1) ELISA Assay for Assessment of Activity in Cell Culture
(§2) Compounds of the invention were tested for their ability to inhibit HIV replication in cell culture. Viruses coding for Wild type and mutant enzymes were used. T-lymphocytes were infected with the virus, infected cells were incubated in the presence of varying amounts of compounds of the invention, and an ELISA assay for the viral protein p24 was used to quantify viral replication. Table 9 lists the results as EC50 (nM).

In assay [2] the test system is HIV replication in T-lymphocytes, virus coding for wild type enzyme. The assay can be described thus: ELISA (p24) assay for activity in cell culture, wild type virus. Type of assay: cell-based. Conditions: Human immunodeficiency virus 1, T-lymphocyte, read-out: EC50 WT RT. As to the method:
as §1, §2
On the technique in general: In an ELISA, binding on a coated surface is turned into a signal by an enzyme label.

Assay [3] addresses T1, HIV-1 RT double mutant K103N/Y181C (Human immunodeficiency virus type 1 group M subtype B, UniProt P04585, K690N/Y768C).
T1 construct: Heterodimeric RT was eluted using a descending gradient; made in house; host or cells: E. coli (inferred; the text describes only wild type and Y181C preparations)
The assay can be described thus: Reverse Transcriptase (RT) assay, double mutant enzyme. Format: biochemical. From the text:
(§3) Among the enzymes for which Human Immunodeficiency Virus (HIV-1) encodes is a reverse transcriptase (1), so-named because it transcribes a DNA copy from an RNA template. This activity can be quantitatively measured in a cell-free enzyme assay, which has been previously described (2), and is based upon the observation that reverse transcriptase is able to use a synthetic template poly r(C) primed with oligo d(G) to transcribe a radio-labelled, acid-precipitable DNA strand utilising ^3H-dGTP as a substrate. The assay described below utilises the wild type (WT) enzyme, which is the predominant form of the enzyme observed with patients infected with HIV-1. Utilisation of mutant RT enzymes (for example, Y181C, prepared by site-directed mutagenesis in which the tyrosine residue at codon 181 has been replaced by a cysteine residue, or the mutants K103N, V106A and Y188C) and analogous assay conditions allows compounds to be evaluated for their effectiveness at inhibiting the mutant enzymes.
(§4) The HIV-1 RT expression clone, pKRT2, was obtained from Yale University (3). An overnight culture, grown in 2×YT medium (37° C., 225 rpm) (4), supplemented with 100 μg/mL ampicillin for positive selection was used to inoculate the 2×YT medium. The culture was incubated (37° C., 225 rpm) until it reached an OD600 of 0.6-0.9. At that time, the repressor inhibitor IPTG (isopropyl P-D-thiogalactopyranoside) was added to 0.5 mM, and the mixture was incubated for an additional 2 hours.
(§5) Purification of recombinant reverse transcriptase was performed using a combination of methods previously described (5). This procedure is summarised briefly as follows: E. Coli containing RT-1 wt or RT-1 (Y181 C) were suspended in 50 mM MES, pH 6.0 containing 10% glycerol, lysed in a French press, centrifuged, and the supernates discarded. Lysate pellets were extracted with buffer A (50 mM MES, pH 6.0, 100 mM KCl, 50 mM KPi, 10% glycerol, 0.02% hexyl-β-glucoside), and re-centrifuged; nucleic acid in supernates was precipitated with 0.1% polyethylenimine. […] Bound RT was eluted with a gradient of 0 to 1.0M
(§6) (NH4)2 SO4 in buffer B. Heparin-Sepharose fractions containing RT were concentrated (Amicon YM-30 membrane), combined with equal volumes of 2.0M (NH4)2SO4 in buffer B and injected onto a 21.5×150 mm TSK Phenyl-5PW HIC HPLC column (Phenomenex). Heterodimeric RT was eluted using a descending gradient of 1.0M to 0M (NH4)2SO4 in buffer B, concentrated, and stored at 4° C.
(§7) The 2.4× concentrated stock reaction mixture was aliquoted and stored at −20° C. The mixture is stable and can be thawed for use in each assay. This enzyme assay has been adapted to a 96 well microtiter plate system, and has been previously described (6). Tris buffer (50 mM, pH 7.8), vehicle (solvent diluted to match the compound dilution), or compounds in vehicle were dispensed into 96-well microtiter plates (10 μL/well; 3 wells/compound). The HIV-1 RT enzyme was thawed, diluted in 50 mM Tris pH 7.8 containing 0.05% Chaps to give 1.5 nM enzyme and 25 μL were dispensed per well. Ten μL of 0.5M EDTA were added to the first three wells of the microtiter plate. EDTA chelates the Mg^2+ present and prevents reverse transcription. This group served as background polymerisation, which was subtracted, from all other groups. Twenty-five μl of the 2.4× reaction mixture was added to all wells and the assay was allowed to incubate at room temperature for 30 minutes. The assay was terminated by precipitating the DNA in each well with 60 μL of sodium pyrophosphate (2% w/v) in 10% trichloroacetic acid (TCA) (10% w/v). The microtiter plate was incubated for 15 minutes at 4° C. and the precipitate was harvested onto #30 glass fibre paper (Schleicher & Schuell) using a Tomtech 96-well harvester. The filters were dried, placed in plastic bags with Betaplate scintillation cocktail (Pharmacia/LKB) and counted in the Betaplate counter (Pharmacia/LKB).
(§8) The calculation for percent inhibition is as follows: [formula] […]

For a further assay, the target named is T2, HIV-1 RT wild type (WT) (Human immunodeficiency virus type 1 group M subtype B, UniProt P04585).
T2 construct: Heterodimeric RT was eluted using a descending gradient; made in house; host or cells: E. coli
The assay can be described thus: Reverse Transcriptase (RT) assay, wild type enzyme. Type of assay: biochemical.
From the text: as §3, §4, §5, §6, §7, §8

Consider `CCOC(=O)CCCN1c2cccc(OCCc3cnc4c(c3)C(=O)N(C)c3cccnc3N4CC)c2CCS1(=O)=O` [Compound 628], for which the EC50 in assay [1] and in assay [2] was under 100 nM in each case. Moreover, the IC50 (in assay [3]; at HIV-1 RT wild type (WT)) was under 100 nM in each case.
Consider `CCN1c2ncc(CCOc3cccc4c3CS(=O)(=O)N4)cc2C(=O)Nc2c(C)cc(F)nc21` [Compound 110], for which the EC50 in assay [1] and in assay [2] was under 100 nM throughout. Besides, the values for the half-inhibitory concentration (IC50) (in assay [3]; at HIV-1 RT wild type (WT)) were 100 to 1000 nM and under 100 nM, respectively.
Consider `CCN1c2ncc(CCOc3cccc4c3CS(=O)(=O)N4)cc2C(=O)N(C)c2ccc(F)nc21` [Compound 103], for which the EC50 in assay [1] and in assay [2] was under 100 nM in each case. Further, the IC50 (usually the concentration at which inhibition is half-maximal) in assay [3] is 100 to 1000 nM; at HIV-1 RT wild type (WT) it was under 100 nM.
In the case of `CCN1c2ncc(CCOc3cccc4c3CNS4(=O)=O)cc2C(=O)Nc2c(C)cc(F)nc21` [Compound 223], the EC50 in assay [1] and in assay [2] was under 100 nM in each case. Further, the IC50 (in assay [3]; on HIV-1 RT wild type (WT)) was under 100 nM throughout.
On to `CCN1c2ncc(CCOc3cccc4c3CS(=O)(=O)N4CCO)cc2C(=O)N(C)c2cccnc21` [Compound 129], for which the EC50 in assay [1] and in assay [2] was under 100 nM in each case. For the same compound, the IC50 (in assay [3]; at HIV-1 RT wild type (WT)) was under 100 nM in each case.
As for `CCN1c2ncc(CCOc3ccc4c(c3)C(C)(C)NS4(=O)=O)cc2C(=O)Nc2c(C)ccnc21` [Compound 311], the EC50 in assay [1] and in assay [2] was under 100 nM throughout. Further, the IC50 was 100 to 1000 nM in assay [3] and under 100 nM on HIV-1 RT wild type (WT).
As to `CCN1c2ncc(CCOc3cccc4c3CS(=O)(=O)N4Cc3cccnc3)cc2C(=O)N(C)c2cccnc21` [Compound 131], the EC50 in assay [1] and in assay [2] was under 100 nM each time. The IC50 (in assay [3]; at HIV-1 RT wild type (WT)) was under 100 nM each time.
As to `CCN1c2ncc(CCOc3cccc4c3CCS(=O)(=O)N4CC(=O)NS(C)(=O)=O)cc2C(=O)N(C)c2cccnc21` [Compound 631], the EC50 in assay [1] and in assay [2] was 100 to 1000 nM in each case. The IC50 (in assay [3]; at HIV-1 RT wild type (WT)) was under 100 nM each time.
`CCN1c2ncc(CCOc3cccc4c3CCS(=O)(=O)N4CCCS(N)(=O)=O)cc2C(=O)N(C)c2cccnc21` [Compound 630]: the EC50 in assay [1] and in assay [2] was under 100 nM in each case. Further, the 50% inhibitory concentration (IC50) (in assay [3]; on HIV-1 RT wild type (WT)) was under 100 nM throughout.
For the compound `CCN1c2ncc(CCOc3cccc4c3CCS(=O)(=O)N4CCN3CCOCC3)cc2C(=O)N(C)c2cccnc21` [Compound 617], the EC50 in assay [1] and in assay [2] was under 100 nM each time. Further, the IC50 (in assay [3]; on HIV-1 RT wild type (WT)) was under 100 nM each time.
Consider `CCN1c2ncccc2NC(=O)c2cc(CCOc3cccc4c3C=CS(=O)(=O)N4C)cnc21` [Compound 805], for which the IC50 in assay [3] is 100 to 1000 nM; on HIV-1 RT wild type (WT), under 100 nM.
Take `CCN1c2ncc(CCOc3cccc4c3CCS(=O)(=O)N4CC(N)=O)cc2C(=O)N(C)c2cccnc21` [Compound 609]: the IC50 (in assay [3]; at HIV-1 RT wild type (WT)) was under 100 nM throughout.
On to `CCN1c2ncc(CCOc3ccc4c(c3)CN(C)S4(=O)=O)cc2C(=O)N(C)c2cccnc21` [Compound 303], for which the IC50 is 100 to 1000 nM in assay [3] and under 100 nM at HIV-1 RT wild type (WT).
In the case of `CCN1c2ncc(CCOc3cccc4c3CS(=O)(=O)N4CC(=O)NC3CC3)cc2C(=O)N(C)c2cccnc21` [Compound 139], the IC50 in assay [3] is 100 to 1000 nM; at HIV-1 RT wild type (WT), under 100 nM.
For `CCN1c2ncc(CCOc3ccc4c(c3)CS(=O)(=O)N4)cc2C(=O)N(C)c2cccnc21` [Compound 402], the IC50 in assay [3] was over 1000 nM; on HIV-1 RT wild type (WT), under 100 nM.
In the case of `CCN1c2ncc(CCOc3cccc4c3CS(=O)(=O)N4C)cc2C(=O)Nc2c(C)cc(C)nc21` [Compound 117], in assay [2], the EC50 was under 100 nM. The IC50 (in assay [3]; on HIV-1 RT wild type (WT)) was under 100 nM each time.
With `CCN1c2ncc(COc3ccc4c(c3)CS(=O)(=O)N4)cc2C(=O)N(C)c2ccc(F)nc21` [Compound 404], the half-maximal inhibitory concentration (IC50) is over 1000 nM in assay [3] and under 100 nM at HIV-1 RT wild type (WT).
For the compound `CCN1c2ncc(CCOc3cccc4c3CS(=O)(=O)N4Cc3cc[n+]([O-])cc3)cc2C(=O)Nc2c(C)cc(F)nc21` [Compound 145], the IC50 (in assay [3]; on HIV-1 RT wild type (WT)) was under 100 nM in each case.
In the case of `CCN1c2ncc(CCOc3cccc4c3CS(=O)(=O)N4C)cc2C(=O)Nc2c(C)cc(F)nc21` [Compound 112], the IC50 (in assay [3]; on HIV-1 RT wild type (WT)) was under 100 nM each time.
Regarding `CCN1c2ncc(CCOc3cccc4c3CCS(=O)(=O)N4C(=O)N3CCN(C)CC3)cc2C(=O)N(C)c2cccnc21` [Compound 620], the IC50 (in assay [3]; on HIV-1 RT wild type (WT)) was under 100 nM throughout.
As for `CCN1c2ncc(CCOc3ccc4c(c3)CNS4(=O)=O)cc2C(=O)Nc2c(C)cc(F)nc21` [Compound 310], the IC50 in assay [3] was 100 to 1000 nM; on HIV-1 RT wild type (WT), under 100 nM.
On to `CCN1c2ncc(CCOc3cccc4c3CCS(=O)(=O)N4C(=O)N3CCOCC3)cc2C(=O)N(C)c2cccnc21` [Compound 618], for which the IC50 (in assay [3]; on HIV-1 RT wild type (WT)) was under 100 nM each time.
Regarding `CCN1c2ncc(CCOc3cccc4c3CS(=O)(=O)N4CC)cc2C(=O)N(C)c2ccc(C)nc21` [Compound 115], the IC50 (in assay [3]; at HIV-1 RT wild type (WT)) was under 100 nM each time.
With `CCN1c2ncc(CCOc3cccc4c3CS(=O)(=O)N4)cc2C(=O)N(C)c2cccnc21` [Compound 101], in assay [1], the EC50 was under 100 nM. The IC50 is 100 to 1000 nM in assay [3] and under 100 nM at HIV-1 RT wild type (WT).
Turning to `CCN(CC)CCN1c2cccc(OCCc3cnc4c(c3)C(=O)N(C)c3cccnc3N4CC)c2CCS1(=O)=O` [Compound 613], the half-inhibitory concentration (IC50) (in assay [3]; at HIV-1 RT wild type (WT)) was under 100 nM in each case.
Consider `Cc1ccnc2c1NC(=O)c1cc(CCOc3cccc4c3C(C)(C)NS4(=O)=O)cnc1N2C1CC1` [Compound 226], for which the IC50 in assay [3] is over 1000 nM; on HIV-1 RT wild type (WT), under 100 nM.
For `CCN1c2ncc(CCOc3cccc4c3CS(=O)(=O)N4CCOc3cc[n+]([O-])cc3)cc2C(=O)N(C)c2cccnc21` [Compound 143], the 50% inhibitory concentration (IC50) (in assay [3]; at HIV-1 RT wild type (WT)) was under 100 nM throughout.
For `CCN1c2ncc(CCOc3ccc4c(c3)C(C)(C)S(=O)(=O)N4)cc2C(=O)Nc2c(C)cc(F)nc21` [Compound 409], the IC50 in assay [3] was 100 to 1000 nM; at HIV-1 RT wild type (WT) it was under 100 nM.
In the case of `CCN1c2ncc(CCOc3ccc4c(c3)C(C)(C)N(C)S4(=O)=O)cc2C(=O)N(C)c2cccnc21` [Compound 307], the IC50 is 100 to 1000 nM in assay [3] and under 100 nM at HIV-1 RT wild type (WT).
In the case of `CCOC(=O)CCCN1c2cccc(OCCc3cnc4c(c3)C(=O)N(C)c3cccnc3N4CC)c2CS1(=O)=O` [Compound 135], the IC50 (in assay [3]; on HIV-1 RT wild type (WT)) was under 100 nM throughout.
